Data from patent publication US20190072567A1, “METHOD OF DETECTING LC3B EXPRESSION IN EXOSOMES EXTRACTED FROM LIQUID BIOLOGICAL SAMPLES” (University of Cincinnati, priority 2017, published 2019).
“Also recorded” adds a separate entry of the source.

Tests used:
HEK293 cells = assay: Annexin V cell survival assay by flow cytometry; assay type: cell-based, human
Description: HEK293 cells were plated in 10 cm culture dishes in 10% FBS DMEM media. Media was replaced with dFBS DMEM once 40% confluence was reached and cells were incubated for 24 h. Cells were treated with the following concentrations of agents: Gem 20 μM concentration (Gem^20), CQ 10 μM (CQ^10) and 20 μM (CQ^20) concentrations, and in combinations (wherein Gem was administered at 20 μM but CQ concentration varied) as follows: Gem+CQ^10 and Gem+CQ^20. Cells were treated in fresh dFBS DMEM media for 16 h. Cells and media were collected, centrifuged, and washed and stained with propedium iodide (PI) and annexin V prior to running samples. Cell cycle analysis was performed using fresh cells on a FACS Calibur (Becton Dickinson) after incubation with 25 μg/ml PI. Cell cycle phases were analyzed with the CellQuest-Pro software program (Becton Dickinson).
The effect of autophagy inhibitor CQ was examined via a cell survival assay by flow cytometry using annexin V (FIG. 8).
HEK293 cells were plated in 6 well cell culture plates and treated with control (A), Gem 20 μM (B), CQ 10 μM (C), CQ 20 μM (D), Gem 20 μM+CQ 10 μM (E), and Gem 20 μM+CQ 20 μM (F). Cells treated with CQ at both concentrations had increased expression of phosphatidyl serine compared to control from 10% up to almost 17% (C,E). Cells treated with Gem 20 μM alone had only 8.2% apoptotic cells (B).

LC3B [1] = assay: Western blot of LC3B in U251 cells and in exosomes extracted from cell media; assay type: cell-based, human; settings: for LC3B-II band in cells: cells treated with chloroquine, whole cell / total cell extracts (U251); for LC3B-II band in exosomes: exosomes isolated from U251 cells treated with CQ
Text: Three cell lines were used in the studies disclosed herein. U251, a human glioblastoma cell line, MiaPaCa2, a human pancreatic carcinoma cell line, and HEK293, a human embryonic kidney cell line. A variety of cell lines were selected in order to compare results for cells having different baseline autophagic activities. Cells were maintained in DMEM culture media supplemented with 10% fetal bovine serum (FBS), antimycotic, and L-glutamine. At 40% confluence, culture dishes were washed twice with PBS and media was replaced with 10% exosome depleted FBS (dFBS). DMEM media (50 ml EXO-FBS™ Exosome Depleted FBS media, System Biosciences) and incubated to settle for 24 h. After 24 h, culture dishes were washed with PBS and new dFBS DMEM media was added and treated with chloroquine diphosphate salt (Sigma Aldrich, UK) and incubated. Incubation period was 48 h for western blot on HEK293 plates and 72 h for western blot of U251 cells. Incubation varied according to plate confluency, CQ concentration, and expected number of exosomes secreted by the cell line. Media was collected and used for exosome extraction directly after incubation period concluded. Exosome Extraction from Patient Plasma
Exosomes were extracted from freshly collected cell culture media using exosome precipitation reagent (Total Exosome Isolation from cell culture media, Invitrogen by Life Technologies) following manufacturer instructions. Briefly, exosome extraction reagent is added to cell culture media and the solution is incubated overnight at 2-8° C. Precipitated exosomes are recovered by standard centrifugation at 10,000×g for 60 min. Extracted exosomes were suspended in phosphate buffered saline (PBS) and stored at −80° C.
Detection of LC3B expression in isolated exosomes was completed using western blotting standard protocols. Briefly, gel electrophoresis was used to separate proteins by size and/or structure. Proteins were then transferred to a membrane (polyvinylidene fluoride or nitrocellulose are suitable for use) and blocked with blocking buffer to prevent non-specific antibody binding. Membranes were incubated with anti-LC3B antibody to target LC3B-I and LC3B-II. LI-COR detection (LI-COR Biotechnology, USA) was employed to visualize target proteins. LC3B protein detection was achieved by anti-LC3B rabbit monoclonal antibody (Cell Signaling Inc., USA). CD9 was used as a loading control and was detected using rabbit monoclonal antibody (Cell Signaling Inc., USA). All western blots were run on 5-15% gradient gels after estimating and unifying sample protein content by bicinchoninic acid assay (BCA).
Quantification of LC3B-I and LC3B-II by western blot was compared in U251 cells, exosomes extracted from cell media, patient peripheral blood, and HEK293 cells (FIG. 1). U251 and HEK293 cells were treated with CQ to induce exosome secretion. Both cells and exosomes extracted from cellular media were analyzed. A peripheral blood sample was obtained from a patient undergoing Gem/Carb treatment, with a −7 daily pretreatment with CQ. Exosomes were isolated from the patient's plasma sample.

LC3B [2] = assay: Western blot of LC3B in exosomes extracted from MiaPaCa2 cells; assay type: cell-based, human
Description: U251, a human glioblastoma cell line, MiaPaCa2, a human pancreatic carcinoma cell line, and HEK293, a human embryonic kidney cell line. […] Cells were maintained in DMEM culture media supplemented with 10% fetal bovine serum (FBS), antimycotic, and L-glutamine. At 40% confluence, culture dishes were washed twice with PBS and media was replaced with 10% exosome depleted FBS (dFBS). DMEM media (50 ml EXO-FBS™ Exosome Depleted FBS media, System Biosciences) and incubated to settle for 24 h. After 24 h, culture dishes were washed with PBS and new dFBS DMEM media was added and treated with chloroquine diphosphate salt (Sigma Aldrich, UK) and incubated. […] Incubation varied according to plate confluency, CQ concentration, and expected number of exosomes secreted by the cell line. Media was collected and used for exosome extraction directly after incubation period concluded.
Detection of LC3B expression in isolated exosomes was completed using western blotting standard protocols. Briefly, gel electrophoresis was used to separate proteins by size and/or structure. Proteins were then transferred to a membrane (polyvinylidene fluoride or nitrocellulose are suitable for use) and blocked with blocking buffer to prevent non-specific antibody binding. Membranes were incubated with anti-LC3B antibody to target LC3B-I and LC3B-II. LI-COR detection (LI-COR Biotechnology, USA) was employed to visualize target proteins. […] CD9 was used as a loading control and was detected using rabbit monoclonal antibody (Cell Signaling Inc., USA). […]

LC3B [3] = assay: Western blot of LC3B in exosomes extracted from patient plasma; assay type: in vivo, human; settings: patients, Gem/Carb regimen + CQ 100 mg/day
Description: The study included 12 patients who were included within cohorts 1-3 of the approved phase I clinical trial (ClinicalTrials.gov Identifier NCT02071537). […] All subjects were consented before treatment and sample collection. All patients were heavily pretreated with anti-cancer therapeutics, with the exception of one patient who was enrolled to receive therapy with carboplatin/gemcitabine as part of the standard-of-care, in addition to the study CQ.
All 12 patients received Gem/Carb for from one to four cycles at standard doses, wherein the first three patients of cohort one received Gem 1200 mg/m2 and the remaining three patients of cohort one received 1200 mg/m^2 (Gem dose decreased in some patients due to heavy pretreatment, in order to avoid high toxicity profile). Carboplatin was received as area under the curve (AUC) 5 and dose modifications were permitted. […] The first 6 patients received 50 mg CQ daily. When well tolerated, the dose was increased by 50 mg increments to 100 mg/day (3 patients) and 150 mg/day (3 patients). All candidates began taking CQ orally 7 days prior to chemotherapy (day −7) and continued taking CQ daily throughout four cycles of Gem/Carb. […]
Detection of LC3B expression in isolated exosomes was completed using western blotting standard protocols. […] CD9 was used as a loading control and was detected using rabbit monoclonal antibody (Cell Signaling Inc., USA). […]

CCN(CC)CCCC(C)Nc1ccnc2cc(Cl)ccc12 (stereo not drawn) [CQ, chloroquine]
apoptotic cells (HEK293 cells; 10 μM CQ, 16 h): 17%
distribution of cell population (HEK293 cells; 20 μM CQ compared with 10 μM CQ): decreased both live and necrotic cells in favor of early apoptotic and apoptotic cells
expression of phosphatidyl serine (apoptotic cells) (HEK293 cells; CQ at both concentrations (10 μM, 20 μM), control 10%): ~17%
LC3B-II band in cells (LC3B [1]): prominent in both CQ-treated and CQ-untreated samples
LC3B-II band in cells (LC3B [1]; listed as chloroquine): increase in LC3B-II band thickness
LC3B-I bands in exosomes (LC3B [1]; exosomes from cells treated with chloroquine): lacks LC3B-I bands
LC3B-II band in exosomes (LC3B [1]): detected
LC3B-II band in exosomes (LC3B [1]; listed as chloroquine): clear LC3B-II band
LC3B-II expression in exosomes (LC3B [2]; CQ 50 μM): clear expression of LC3B-II
LC3B expression in plasma extracted exosomes (LC3B [3]): first detected at 6h, with peak detection on day 15

Nc1ccn([C@@H]2O[C@H](CO)[C@@H](O)C2(F)F)c(=O)n1 [Gem, gemcitabine]
early apoptotic cells (HEK293 cells; 20 μM Gem, 16 h): 56.3%
live cells (HEK293 cells; 20 μM Gem, 16 h): 29.3%
main cell population (HEK293 cells; Gem 20 μM): early apoptotic phase
apoptotic cells (HEK293 cells; Gem 20 μM alone, 16 h): 8.2%
LC3B band intensity in exosomes (LC3B [2]; Gemcitabine 20 μM alone): significantly less intense bands for both forms of LC3B; also recorded: comparatively less intense band
